Test results: patent US5840684A, “Glycopeptide antibiotic derivatives” (Eli Lilly and Company, priority 1995, dated 1998)
Converted amounts (≈) assume the structure as drawn.

Assays:
[1] = system: Staphylococcus aureus 491; test: broth micro-dilution MIC; format: cell-based
Experimental: (§1) The MIC's were determined using a standard broth micro-dilution assay.

[2] = system: Staphylococcus aureus 447; test: broth micro-dilution MIC; format: cell-based
Experimental: as §1

[3] = system: Staphylococcus aureus SA1199A; test: broth micro-dilution MIC; format: cell-based
Experimental: as §1

[4] = system: Staphylococcus aureus 489; test: broth micro-dilution MIC; format: cell-based
Experimental: as §1

[5] = system: Entercoccus faecium 180-1; test: broth micro-dilution MIC; format: cell-based
Experimental: as §1

[6] = system: vancomycin-resistant enterococci; test: broth micro-dilution, mean geometric MIC; format: cell-based, Enterococcus faecium and Enterococcus faecalis; details: enterococci, 24-hour incubation
Entercoccus faecium 180 = test: broth micro-dilution MIC; format: cell-based; details: Entercoccus faecium 180
Experimental: (§2) The formula I compounds have in vitro and in vivo activity against Gram-positive pathogenic bacteria. The MIC's were determined using a standard broth micro-dilution assay.

[7] = system: Enterococcus gallinarum 245; test: broth micro-dilution MIC; format: cell-based; details: Enterococcus gallinarum 245
Experimental: as §2

Entercoccus faecium 2041 = test: broth micro-dilution MIC; format: cell-based; details: Entercoccus faecium 2041
Experimental: as §2

[8] = system: vancomycin-susceptible enterococci; test: broth micro-dilution, mean geometric MIC; format: cell-based, Enterococcus faecium and Enterococcus faecalis; details: enterococci, 24-hour incubation
[9] = system: Staphylococcus aureus S13E; format: cell-based
Experimental: as §1

[10] = system: Staphylococcus aureus SA1199B; format: cell-based
Experimental: as §1

[11] = system: Staphylococcus aureus SA1199; test: broth micro-dilution MIC; format: cell-based
Experimental: as §1

Entercoccus faecium 276 = test: broth micro-dilution MIC; format: cell-based
Experimental: as §1

[12] = system: Staphylococcus aureus X400; test: broth micro-dilution MIC; format: cell-based
Experimental: as §1

[13] = system: Staphylococcus aureus X778; test: broth micro-dilution MIC; format: cell-based
Experimental: as §1

[14] = system: Staphylococcus aureus 446; test: broth micro-dilution MIC; format: cell-based
Experimental: as §1

[15] = system: Staphylococcus epidermidis 270; test: broth micro-dilution MIC; format: cell-based
Experimental: as §2

[16] = system: Staphylococcus haemolyticus 105; test: broth micro-dilution MIC; format: cell-based
Experimental: as §2

[17] = system: Staphylococcus haemolyticus 415; test: broth micro-dilution MIC; format: cell-based
Experimental: as §2

[18] = system: Streptococcus pyogenes C203; test: broth micro-dilution MIC; format: cell-based
Experimental: as §1

[19] = system: Streptococcus pneumoniae P1; test: broth micro-dilution MIC; format: cell-based
Experimental: as §2

SMILES | MIC [1] [µg/mL] | MIC [2] [µg/mL] | MIC [3] [µg/mL] | MIC [4] [µg/mL] | MIC [5] [µg/mL] | mean geometric MIC, Vancomycin Resistant Strains [6] [µg/mL] | MIC (Entercoccus faecium 180) [µg/mL] | MIC [7] [µg/mL] | MIC (Entercoccus faecium 2041) [µg/mL] | mean geometric MIC, Vancomycin Sensitive Strains [8] [µg/mL] | MIC [9] [µg/mL] | MIC [10] [µg/mL] | MIC (Entercoccus faecium 276) [µg/mL] | MIC [13] [µg/mL] | MIC [14] [µg/mL] | MIC [15] [µg/mL] | MIC [16] [µg/mL] | MIC [17] [µg/mL] | MIC [18] [µg/mL] | MIC [19] [µg/mL] | also measured
CCCCCC1CCC(c2ccc(CNC3(C)CC(OC4C(Oc5c6cc7cc5Oc5ccc(cc5Cl)C(OC5CC(C)(N)C(O)C(C)O5)C5NC(=O)C(NC(=O)C7NC(=O)C(CC(N)=O)NC(=O)C(NC(=O)C(CC(C)C)NC)C(O)c7ccc(c(Cl)c7)O6)c6ccc(O)c(c6)-c6c(O)cc(O)cc6C(C(=O)O)NC5=O)OC(CO)C(O)C4O)OC(C)C3O)cc2)CC1 (stereo not drawn) [Compound 34] | 8 (≈ 4.36 µM) | 8 (≈ 4.36 µM) | 2 (≈ 1.09 µM) | 8 (≈ 4.36 µM) | 2 (≈ 1.09 µM) | 4.0 | 4 (≈ 2.18 µM) | 4 (≈ 2.18 µM) | 8 (≈ 4.36 µM) | 3.4 |  |  |  |  |  |  |  |  |  |  | 
CNC(CC(C)C)C(=O)NC1C(=O)NC(CC(N)=O)C(=O)NC2C(=O)NC3C(=O)NC(C(=O)NC(C(=O)O)c4cc(O)cc(O)c4-c4cc3ccc4O)C(OC3CC(C)(N)C(O)C(C)O3)c3ccc(c(Cl)c3)Oc3cc2cc(c3OC2OC(CO)C(O)C(O)C2OC2CC(C)(NCc3ccc(-c4ccc(OC)cc4)s3)C(O)C(C)O2)Oc2ccc(cc2Cl)C1O (stereo not drawn) [Compound 71] | 2 (≈ 1.11 µM) | 4 (≈ 2.23 µM) |  |  |  | 11 | 4 (≈ 2.23 µM) | 8 (≈ 4.46 µM) | 1 (≈ 0.557 µM) | 0.57 | 1 (≈ 0.557 µM) | 4 (≈ 2.23 µM) | 2 (≈ 1.11 µM) | 2 (≈ 1.11 µM) | 4 (≈ 2.23 µM) | 2 (≈ 1.11 µM) | 16 (≈ 8.91 µM) | 8 (≈ 4.46 µM) |  |  | MIC [11]: 1 µg/mL (≈ 0.557 µM); MIC [12]: 1 µg/mL (≈ 0.557 µM)
CCN(CC)CCOc1ccc(CNC2(C)CC(OC3C(Oc4c5cc6cc4Oc4ccc(cc4Cl)C(OC4CC(C)(N)C(O)C(C)O4)C4NC(=O)C(NC(=O)C6NC(=O)C(CC(N)=O)NC(=O)C(NC(=O)C(CC(C)C)NC)C(O)c6ccc(c(Cl)c6)O5)c5ccc(O)c(c5)-c5c(O)cc(O)cc5C(C(=O)O)NC4=O)OC(CO)C(O)C3O)OC(C)C2O)cc1 (stereo not drawn) [Compound 83] | 0.5 (≈ 0.278 µM) | 2 (≈ 1.11 µM) |  |  | 0.125 (≈ 0.0695 µM) | 54 | 8 (≈ 4.45 µM) | 0.5 (≈ 0.278 µM) | 0.5 (≈ 0.278 µM) | 1.7 | 0.125 (≈ 0.0695 µM) | 1 (≈ 0.556 µM) |  | 0.5 (≈ 0.278 µM) | 1 (≈ 0.556 µM) | 2 (≈ 1.11 µM) | 2 (≈ 1.11 µM) | 4 (≈ 2.22 µM) | ≤ 0.06 | ≤ 0.06 | MIC [11]: 2 µg/mL (≈ 1.11 µM); MIC [12]: 2 µg/mL (≈ 1.11 µM)
CNC(CC(C)C)C(=O)NC1C(=O)NC(CC(N)=O)C(=O)NC2C(=O)NC3C(=O)NC(C(=O)NC(C(=O)O)c4cc(O)cc(O)c4-c4cc3ccc4O)C(OC3CC(C)(N)C(O)C(C)O3)c3ccc(c(Cl)c3)Oc3cc2cc(c3OC2OC(CO)C(O)C(O)C2OC2CC(C)(NCc3ccc(N4CCC(C)CC4)cc3)C(O)C(C)O2)Oc2ccc(cc2Cl)C1O (stereo not drawn) [Compound 129] | 0.5 (≈ 0.281 µM) | 1 (≈ 0.562 µM) | ≤ 0.06 | ≤ 0.06 | ≤ 0.06 | 27 | 4 (≈ 2.25 µM) | 0.125 (≈ 0.0702 µM) | ≤ 0.06 | 1.52 |  |  | 0.125 (≈ 0.0702 µM) |  | 2 (≈ 1.12 µM) | 1 (≈ 0.562 µM) | 4 (≈ 2.25 µM) | 4 (≈ 2.25 µM) | ≤ 0.06 | ≤ 0.06 | 
CNC(CC(C)C)C(=O)NC1C(=O)NC(CC(N)=O)C(=O)NC2C(=O)NC3C(=O)NC(C(=O)NC(C(=O)O)c4cc(O)cc(O)c4-c4cc3ccc4O)C(OC3CC(C)(N)C(O)C(C)O3)c3ccc(c(Cl)c3)Oc3cc2cc(c3OC2OC(CO)C(O)C(O)C2OC2CC(C)(NCc3ccc(O)c(O)c3)C(O)C(C)O2)Oc2ccc(cc2Cl)C1O (stereo not drawn) [Compound 145] | 0.5 (≈ 0.292 µM) | 1 (≈ 0.583 µM) | ≤ 0.06 | ≤ 0.06 | ≤ 0.06 |  | 4 (≈ 2.33 µM) |  |  | 1.3 | 0.125 (≈ 0.0729 µM) | ≤ 0.06 | 0.125 (≈ 0.0729 µM) | 0.125 (≈ 0.0729 µM) | 0.5 (≈ 0.292 µM) | 1 (≈ 0.583 µM) | 2 (≈ 1.17 µM) | 8 (≈ 4.67 µM) | ≤ 0.06 | ≤ 0.06 | 
CNC(CC(C)C)C(=O)NC1C(=O)NC(CC(N)=O)C(=O)NC2C(=O)NC3C(=O)NC(C(=O)NC(C(=O)O)c4cc(O)cc(O)c4-c4cc3ccc4O)C(OC3CC(C)(N)C(O)C(C)O3)c3ccc(c(Cl)c3)Oc3cc2cc(c3OC2OC(CO)C(O)C(O)C2OC2CC(C)(NCc3ccc(N4CCN(C)CC4)cc3)C(O)C(C)O2)Oc2ccc(cc2Cl)C1O (stereo not drawn) [Compound 146] | 1 (≈ 0.562 µM) | 2 (≈ 1.12 µM) | ≤ 0.06 |  | ≤ 0.06 |  | 8 (≈ 4.49 µM) | 0.5 (≈ 0.281 µM) | 0.5 (≈ 0.281 µM) | 1.5 | 0.5 (≈ 0.281 µM) | ≤ 0.06 | 1 (≈ 0.562 µM) | ≤ 0.06 | 0.5 (≈ 0.281 µM) | 2 (≈ 1.12 µM) | 2 (≈ 1.12 µM) | 4 (≈ 2.25 µM) | ≤ 0.06 | ≤ 0.06 | MIC [11]: ≤ 0.06 µg/mL; MIC [12]: 0.5 µg/mL (≈ 0.281 µM)
CNC(CC(C)C)C(=O)NC1C(=O)NC(CC(N)=O)C(=O)NC2C(=O)NC3C(=O)NC(C(=O)NC(C(=O)O)c4cc(O)cc(O)c4-c4cc3ccc4O)C(O)c3ccc(c(Cl)c3)Oc3cc2cc(c3OC2OC(CO)C(O)C(O)C2OC2CC(C)(NCc3cccc4ccccc34)C(O)C(C)O2)Oc2ccc(cc2Cl)C1O (stereo not drawn) [Compound 180] | 0.5 (≈ 0.315 µM) |  | ≤ 0.06 | ≤ 0.06 |  | > 128 | 8 (≈ 5.03 µM) | 0.25 (≈ 0.157 µM) | 0.25 (≈ 0.157 µM) | 0.71 | ≤ 0.06 | ≤ 0.06 | 2 (≈ 1.26 µM) | ≤ 0.06 |  |  | 2 (≈ 1.26 µM) | 2 (≈ 1.26 µM) | ≤ 0.06 | ≤ 0.06 | MIC [12]: ≤ 0.06 µg/mL
